US7592477B2, “Substituted methylene amide derivatives as modulators of protein tyrosine phosphatases (PTPs)” (Laboratoires Serono SA, priority 2002, dated 2009)
pIC50: −log10 of the molar value.

How the values were obtained:
GLEPP-1 = target: T1, GLEPP-1 (Homo sapiens, UniProt Q16827); assay: PTP Enzyme Assay (DiFMUP), GLEPP-1; type: biochemical; settings: 30 μM DiFMUP; read-out: IC50 value in respect of GLEPP-1
T1 construct: using the catalytic core of a human recombinant PTP as the enzyme
T1 sequence (Q16827 938-1195 limits assumed): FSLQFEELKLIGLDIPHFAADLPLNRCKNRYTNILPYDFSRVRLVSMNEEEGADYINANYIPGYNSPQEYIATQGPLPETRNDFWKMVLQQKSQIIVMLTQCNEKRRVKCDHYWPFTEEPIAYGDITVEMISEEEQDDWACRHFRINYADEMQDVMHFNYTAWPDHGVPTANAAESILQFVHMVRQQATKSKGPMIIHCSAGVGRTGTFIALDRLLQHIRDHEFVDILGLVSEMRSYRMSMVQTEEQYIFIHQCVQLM
Protocol: (§1) The PTP Enzyme Assay aims at determining the extent of inhibition of PTPs, e.g. of PTP1B, SHP-1, SHP-2 or GLEPP-1 in the presence of a test compound of formula (I). The inhibition is illustrated by IC50 values which denote the concentration of test compound necessary to achieve an inhibition of 50% of said PTP's using the following concentration of the PTP substrate DiFMUP: • 5 μM DiFMUP for PTP1B; • 20 […] DiFMUP for SHP-1 and SHP-2; • 30 μM DiFMUP for GLEPP-1. a) PTPs Cloning […]
(§2) Assays were performed in a 96 well plate format, using the catalytic core of a human recombinant PTP as the enzyme and 6,8-DiFluoro-4-MethylUmbelliferyl Phosphate (DiFMUP, Molecular Probes, D-6567) as a substrate. […] The reaction ran for 30 minutes at room temperature before reading the fluorescence intensity (integral or intensity) on a Perkin-Elmer Victor 2 spectrofluorimeter (excitation of 6,8-difluoro-7-hydroxy coumarin is at 355 nm, the emission at 460 nm, for 0.1 s). The percentage of inhibition is determined by measuring the relative fluorescence ion absence of a test compound (PTP inhibitor), i.e. with the solvent alone (5% DMSO). The IC50 values for inhibition were determined in triplicates.

SHP-2 = target: T2, SHP-2 (Homo sapiens, UniProt Q06124); assay: PTP Enzyme Assay (DiFMUP), SHP-2; type: biochemical; settings: 20 λM DiFMUP; read-out: IC50 value in respect of SHP-2
T2 construct: using the catalytic core of a human recombinant PTP as the enzyme
T2 sequence (Q06124 247-517 limits assumed): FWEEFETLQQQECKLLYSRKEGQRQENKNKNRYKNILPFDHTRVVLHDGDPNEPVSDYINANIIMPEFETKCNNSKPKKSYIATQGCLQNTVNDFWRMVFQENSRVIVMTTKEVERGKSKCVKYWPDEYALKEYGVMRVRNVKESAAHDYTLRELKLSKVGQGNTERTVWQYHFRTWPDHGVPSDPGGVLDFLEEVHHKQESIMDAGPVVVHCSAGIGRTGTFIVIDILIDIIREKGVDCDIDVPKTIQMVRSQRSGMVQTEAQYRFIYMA
Protocol: as §1, §2

SHP-1 = target: T3, SHP-1 (Homo sapiens, UniProt P29350); assay: PTP Enzyme Assay (DiFMUP), SHP-1; type: biochemical; settings: 20 λM DiFMUP; read-out: IC50 value in respect of SHP-1
T3 construct: using the catalytic core of a human recombinant PTP as the enzyme
T3 sequence (P29350 244-515 limits assumed): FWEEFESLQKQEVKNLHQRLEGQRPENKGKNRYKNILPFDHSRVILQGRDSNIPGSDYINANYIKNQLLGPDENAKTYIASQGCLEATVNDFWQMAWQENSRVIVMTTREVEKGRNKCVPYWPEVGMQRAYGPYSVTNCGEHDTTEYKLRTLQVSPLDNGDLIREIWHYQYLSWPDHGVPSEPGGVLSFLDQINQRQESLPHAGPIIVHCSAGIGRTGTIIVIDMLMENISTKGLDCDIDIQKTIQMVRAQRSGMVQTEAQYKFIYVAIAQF
Protocol: as §1, §2

PTP1B = target: T4, PTP1B (Homo sapiens, UniProt P18031); assay: PTP Enzyme Assay (DiFMUP), PTP1B; type: biochemical; settings: 5 μM DiFMUP; read-out: IC50 value in respect of PTP1B
T4 construct: The cloning and expression of the catalytic domain of PTPIB, may be performed as described in J. Biol. Chem. 2000; made in house
T4 sequence (P18031 3-277 limits assumed): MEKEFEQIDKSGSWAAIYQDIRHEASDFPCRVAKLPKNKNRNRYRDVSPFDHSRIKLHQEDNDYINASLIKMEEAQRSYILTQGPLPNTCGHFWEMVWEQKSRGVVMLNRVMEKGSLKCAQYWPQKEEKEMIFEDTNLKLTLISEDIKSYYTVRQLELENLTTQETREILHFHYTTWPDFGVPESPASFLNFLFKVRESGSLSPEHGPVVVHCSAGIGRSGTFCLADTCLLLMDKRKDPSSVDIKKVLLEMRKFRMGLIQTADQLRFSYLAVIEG
Protocol: The PTP Enzyme Assay aims at determining the extent of inhibition of PTPs, e.g. of PTP1B, SHP-1, SHP-2 or GLEPP-1 in the presence of a test compound of formula (I). The inhibition is illustrated by IC50 values which denote the concentration of test compound necessary to achieve an inhibition of 50% of said PTP's using the following concentration of the PTP substrate DiFMUP: • 5 μM DiFMUP for PTP1B; • 20 […] DiFMUP for SHP-1 and SHP-2; • 30 μM DiFMUP for GLEPP-1. a) PTPs Cloning
The cloning and expression of the catalytic domain of PTPIB, may be performed as described in J. Biol. Chem. 2000, 275(13), pp 9792-9796. […]
as §2

db/db mice = assay: In vivo assay in db/db mice (postprandial glycemia); settings: 4 hrs after drug administration
Protocol: The following assay aims at determining the anti-diabetic effect of the test compounds of formula (I) in a model of postprandial glycemia in db/db mice, in vivo.
A total of 24 db/db mice (about 8-9 weeks; obtained from IFFACREDO, l'Arbreste, France) were fasted during 20 hours.
4 groups, each consisting of 6 animals were formed:
Group 1: The animals were administered (per os) a dose of […] of vehicle.
Group 2: The animals were administered (per os) a dose of 20 mg/kg of the test compound according to formula (I).
Group 3: The animals were administered (per os) a dose of 100 mg/kg of the test compound according to formula (I).
Group 4: The animals were administered (per os) a dose of 200 mg/kg of the test compound according to formula (I).
After oral administration of the compounds of formula (I) solubilized or suspended in CarboxyMethylCellulose (0.5%), Tween 20 (0.25%) and water as vehicle, the animals had access to commercial food (D04, UAR, Villemoisson/Orge, France) ad libitum. The diabetic state of the mice was verified by determining the blood glucose level before drug administration. Blood glucose and serum insulin levels were then determined 4 hrs after drug administration.
The determination of the blood glucose level was performed using a glucometer (Precision Q.I.D., Medisense, Abbot, ref. 212.62.31).
The determination of the Insulin level was performed using an ELISA kit (Crystal CHEM, Ref. INSK R020).
Changes in blood glucose and serum insulin of drug treated mice were expressed as a percentage of control (group 1: vehicle treated mice).

[1] = Group 2: db/db mice, per os 20 mg/kg
[2] = Group 3: db/db mice, per os 100 mg/kg
[3] = Group 4: db/db mice, per os 200 mg/kg

| SMILES | pIC50 (GLEPP-1) | pIC50 (SHP-2) | pIC50 (SHP-1) | pIC50 (PTP1B) | Decrease in blood glucose (db/db mice; [1]) | Decrease in serum insulin (db/db mice; [1]) | Decrease in blood glucose (db/db mice; [2]) | Decrease in serum insulin (db/db mice; [2]) | Decrease in blood glucose (db/db mice; [3]) | Decrease in serum insulin (db/db mice; [3]) |
| --- | --- | --- | --- | --- | --- | --- | --- | --- | --- | --- |
| CCCCCCCCCCCCNC(=O)c1ccc(CN(Cc2ccc(C(F)(F)F)cc2)C(=O)C(=O)O)cc1 [Example 10, {{4-[(dodecylamino)carbonyl]benzyl}[4-(trifluoromethyl)benzyl]amino}(oxo)acetic acid] | 5.85 | 5.57 | 5.62 | 5.65 | 17 percentage of control | −2 percentage of control | 42 percentage of control | 66 percentage of control | 48 percentage of control | 89 percentage of control |
| CCCCCCCCCCCCCCCNC(=O)c1ccc(CN(Cc2ccc(C(F)(F)F)cc2)C(=O)C(=O)O)cc1 [Example 4, oxo{{4-[(pentadecylamino)carbonyl]benzyl}[4-(trifluoromethyl)benzyl]amino}acetic acid] | 6.30 | 5.85 | 6.00 | – | – | – | – | – | – | – |
